Experimental data taken from patent US20040029889A1, “Heteroaryl alkyl piperazine derivatives as fatty acid oxidation inhibitors” (priority 2000, published 2004).

How the values were obtained:
[1] = test system: mitochondrial fatty acid oxidation using palmitoyl CoA as substrate; assay: Palmitoyl CoA oxidation in isolated rat heart mitochondria; type: biochemical; settings: 1-C14 palmitoyl CoA substrate, 15 min at 30° C., vs DMSO control; for Inhibition of mitochondrial fatty acid oxidation, % of Control, 100 μm (%): 100 μm compound; for Inhibition of mitochondrial fatty acid oxidation, % of Control, 50 μm (%): 50 μm compound
Description: Rat heart mitochondria were isolated by the method of Nedergard and Cannon (Methods in Enzymol. 55, 3, 1979).
Palmitoyl CoA oxidation—The Palmityl CoA oxidation was carried out in a total volume of 100 micro liters containing the following agents: 110 mM KCl, 33 mM Tris buffer at pH 8, 2 mM KPi, 2 MM MgCl2, 0.1 MM EDTA, 14.7 microM defatted BSA, 0.5 mM malic acid, 13 mM carnitine, 1 mM ADP, 52 micrograms of mitochondrial protein, and 16 microM 1-C14 palmitoyl CoA (Sp. Activity 60 mCi/mmole; 20 microCi/ml, using 5 microliters per assay). The compounds of this invention were added in a DMSO solution at the following concentrations: 100 microM, and 50 microM. In each assay, a DMSO control was used. After 15 min at 30° C., the enzymatic reaction was centrifuged (20,000 g for 1 min), and 70 microliters of the supernatant was added to an activated reverse phase silicic acid column (approximately 0.5 ml of silicic acid). The column was eluted with 2 ml of water, and 0.5 ml of the eluent was used for scintillation counting to determine the amount of C^14 trapped as C^14 bicarbonate ion.

[2] = Metabolic stability in human liver S-9 fractions; type: in vitro ADME; settings: % parent remaining after 30 min at 37 C divided by average % ranolazine remaining (57%), >1.2 better, 0.8-1.2 equivalent, <0.8 less stable than ranolazine
Description: Metabolic Stability: As a measure of metabolic stability the compounds of this invention were incubated with human liver S-9 microsomal fractions. After, 30 minutes at 37 C, the amount of parent drug remaining was determined using LC-mass spec. The response factors for each compound was determined by establishing a standard curve and using an internal standard during the analysis of the samples. An average of five experiments for percentage of ranolazine remaining at the 30 minute time point is 57%. The compounds of this invention were assayed as described in the protocol below and the percentage of parent remaining was divided by the average % of ranolazine remaining (57%) affording a metabolic stability factor. A compound with a stability number greater than 1.2 has a better stability than ranolazine in the liver S-9 assay. A compound with a stability number between 1.2 and 0.8 has an equivalent stability in the liver S-9 assay.
The purpose of this experiment is to compare the percentages remaining for compounds of this invention with the percentage remaining for ranolazine after 30 minutes of incubation with human liver S9 fractions.
The following reagents were used; Potassium phosphate, 0.5M pH 7.4 (incubation buffer), kept at room temperature; 0.05M MgCl2 kept at 4° C.; β-Nicotinamide adenine dinucleotide phosphate, tetrasodium salt, reduced form (NADPH), 0.02M solution in water (˜16.6 mg/mL) from Sigma Lot # 79H7044 prepared on day of use. 1 mM of ranolazine or Compounds 43, 45, 47, 52, 70, 74, 76, 78, and 80 in ACN further diluted to obtain 100 μM in 10% ACN; Human S9 stock: 20 mg/mL from Gentest.
Incubation mixtures were prepared as follows:
Combine all components with incubation buffer and re-pipette 200 μL/tube+25 μL of the compound being tested along with 25 μL of S-9.
After 5 min of pre-incubation at 37° C., at 0 and 30 min after starting the reaction, a 50 μl aliquot of the incubation mixture was removed and added to 100 μL of 9:1 acetonitrile: methanol containing the internal standard.
The mixture was centrifuged and a 100 μL aliquot of the supernatant was diluted in 1 mL of solvent C (0.1% Formic Acid in water). Then samples were analyzed for change between the ratio of compound to internal standard at time zero and 30 minutes by LC/MS (injected 10 μL).
Samples were analyzed for the starting compounds and potential metabolite/s by LC/MS using an internal standard and an ODS-C18 column with a flow rate of 0.25 ml/min.

Row | Structure (SMILES) | Inhibition of mitochondrial fatty acid oxidation, % of Control, 100 μm (%) [1] | Inhibition of mitochondrial fatty acid oxidation, % of Control, 50 μm (%) [1] | Liver S9 Stability Factor [2]
1 | Cc1cccc(C)c1NC(=O)CN1CCN(CC(O)CNc2nc3ccccc3s2)CC1 (centres unmarked) [Compound 39, 2-{4-[3-(benzothiazol-2-ylamino)-2-hydroxypropyl]piperazinyl}-N-(2,6-dimethylphenyl)acetamide] | 27% |  | 
2 | Cc1cccc(C)c1NC(=O)CN1CCN(CC(O)COc2ccc3oc(-c4ccc(C(F)(F)F)cc4)nc3c2)CC1 (centres unmarked) [Compound 68, N-(2,6-dimethylphenyl)-2-(4-{2-hydroxy-3-[2-(4-trifluoromethyl-phenyl)-benzoxazol-5-yloxy]-propyl}-piperazin-1-yl)acetamide] |  | 68% | 
3 | Cc1nc2cc(OCC(O)CN3C(C)CN(CC(=O)Nc4c(C)cccc4C)CC3C)ccc2s1 (centres unmarked) [Compound 52, N-(2,6-dimethylphenyl)-2-{4-[2-hydroxy-3-(2-methyl-benzothiazol-5-yloxy)-propyl]-3,5-dimethyl-piperazine-1-yl}acetamide] | 95% |  | 0.5
4 | Cc1cccc(C)c1NC(=O)CN1CCN(CC(O)COc2cccc3cnccc23)CC1 (centres unmarked) [Compound 76, N-(2,6-dimethylphenyl)-2-{4-[2-hydroxy-3-(isoquinolin-5-yloxy)-propyl]-piperazin-1-yl}acetamide] | 26% |  | 0.8
5 | Cc1cccc(C)c1NC(=O)CN1CCN(CC(O)COc2ccnc3ccccc23)CC1 (centres unmarked) [Compound 74, N-(2,6-dimethylphenyl)-2-{4-[2-hydroxy-3-(quinolin-4-yloxy)-propyl]-piperazin-1-yl}acetamide] | 12% |  | 1.0
6 | Cc1cccc(C)c1NC(=O)CN1CCN(CC(O)COc2cccc3nc(-c4ccccc4)sc23)CC1 (centres unmarked) [Compound 62] |  | 62% | 
7 | Cc1nc2ccc(OCC(O)CN3CCN(CC(=O)Nc4c(C)cccc4C)CC3)cc2s1 (centres unmarked) [Compound 49, N-(2,6-dimethylphenyl)-2-{4-[2-hydroxy-3-(2-methyl-benzothiazol-6-yloxy)-propyl]-piperazin-1-yl}aceamide] | 3% |  | 
8 | Cc1nc2cc(OCC(O)CN3CCN(CC(=O)Nc4c(C)cccc4C)CC3)ccc2s1 (centres unmarked) [Compound 45] | 87% |  | 0.8
9 | Cc1cccc(C)c1NC(=O)CN1CCN(CC(O)COc2nc3ccccc3s2)CC1 (centres unmarked) [Compound 43, 2-{4-[3-(benzothiazol-2-yloxy)-2-hydroxy-propyl]-piperazin-1-yl}-N-(2,6-dimethylphenyl)acetamide] | 21% |  | 0.6
10 | Cc1cccc(C)c1NC(=O)CN1CCN(CC(O)COc2cccc3[nH]c(C(N)=O)cc23)CC1 (centres unmarked) [Compound 46] | 61% |  | 1.1
11 | Cc1cccc(C)c1NC(=O)CN1CCN(CC(O)COc2ccc3ncccc3c2)CC1 (centres unmarked) [Compound 78] | 42% |  | 0.6
12 | Cc1cccc(C)c1NC(=O)CN1CCN(CC(O)CNc2nc3ccccc3o2)CC1 (centres unmarked) [Compound 82, 2-{4-[3-(benzoxazol-2-ylamino)-2-hydroxypropyl]piperazinyl}-N-(2,6-dimethylphenyl)acetamide] | 22% |  | 
13 | Cc1cccc(C)c1NC(=O)CN1CCN(CC(O)COc2cccnc2)CC1 (centres unmarked) [Compound 72, N-(2,6-dimethylphenyl)-2-{4-[2-hydroxy-3-(pyridin-3-yloxy)-propyl]-piperazin-1-yl}acetamide] | 8% |  | 
14 | Cc1cccc(C)c1NC(=O)CN1CCN(CC(O)COc2ccc3oc(-c4cccc(C(F)(F)F)c4)nc3c2)CC1 (centres unmarked) [Compound 7, N-(2,6-dimethyl-phenyl)-2-(4-{2-hydroxy-3-[2-(3-trifluoromethylphenyl)benzoxazol-5-yloxy]-propyl}-piperazin-1-yl)acetamide] |  | 77% | 
15 | Cc1cccc(C)c1NC(=O)CN1CCN(CC(O)COc2cnc3ccccc3n2)CC1 (centres unmarked) [Compound 70, N-(2,6-dimethylphenyl)-2-{4-[2-hydroxy-3-(quinoxalin-2-yloxy)-propyl]-piperazin-1-yl}acetamide] |  |  | 0.1
16 | Cc1nc2cc(OCC(O)CN3CCN(CC(=O)Nc4c(C)cccc4C)C(=O)C3)ccc2s1 (centres unmarked) [Compound 64, N-(2,6-dimethylphenyl)-2-{4-[2-hydroxy-3-(2-methyl-benzothiazol-5-yloxy)-propyl]-2-oxo-piperazin-1-yl}acetamide] | 41% |  | 
17 | Cc1ccc2ccc(OCC(O)CN3CCN(CC(=O)Nc4c(C)cccc4C)CC3)cc2n1 (centres unmarked) [Compound 80, N-(2,6-dimethylphenyl)-2-{4-[2-hydroxy-3-(2-methyl-quinolin-7-yloxy)-propyl]-piperazin-1-yl}acetamide] | 22% |  | 0.5
18 | Cc1cccc(C)c1NC(=O)CN1CCN(CC(O)COc2ccc3oc(-c4ccccc4)nc3c2)CC1 (centres unmarked) [Compound 60, N-(2,6-dimethylphenyl)-2-{4-[2-hydroxy-3-(2-phenyl-benzoxazol-5-yloxy)-propyl)-piperazin-1-yl}acetamide] |  | 61% | 
19 | Cc1nc2cc(OCC(O)CN3CCN(CC(=O)Nc4ccc(O)cc4)CC3)ccc2s1 (centres unmarked) [Compound 54, 2-{14-[2-hydroxy-3-(2-methyl-benzothiazol-5-yloxy)-propyl]-piperazin-1-yl}-N-(4-hydroxy-phenyl)acetamide] | 81% |  | 
20 | Cc1cccc(C)c1NC(=O)CN1CCN(CC(O)COc2ccc3ncsc3c2)CC1 (centres unmarked) [Compound 47, 2-{4-[3-(benzothiazol-6-yloxy)2-hydroxy-propyl]-piperazin-1-yl}-N-(2,6-dimethylphenyl)-acetamide] | 70% |  | 1.5
